Test results published in patent publication US9834541B2, “2-aminopyridine compounds” (Merck Patent GmbH, priority 2012, dated 2017).

Columns and labels:
Wnt pathway = assay: Cellular assay for Wnt pathway activity, LS174T-shl-fLuc clone 5 (LS174T-L5) luciferase reporter assay; assay type: cell-based; conditions: Homo sapiens; LS174T TCF luciferase reporter cells, 24 hours incubation
Source text: 1. Cellular Assay for Wnt Pathway Activity LS174T-shl-fLuc Clone 5 (LS174T-L5) Reporter Assay Principle:
This assay is based on an in-vitro luciferase activity readout. The human colon cancer cell line, LS174T was transduced with a lentivirus encoding a short half-life luciferase (with a destabilised PEST sequence construct; construct F1756): 16×TCF/LEF transcription sites—short half life firefly luciferase on a basal pTA promoter—puromycin resistance gene on an EF-1-α promoter). This construct was made using the lentiviral base vector: pCDF1-MCS2-EF1-Puro from System Biosciences (cat. # CD110B-1). The luciferase has a T1/2 of about 60 minutes.
Stable luciferase-expressing clones were selected, using 1 μg/mL puromycin selection and the clones were bulked up.
Compounds that inhibit the Wnt pathway are predicted to inhibit the induction of luciferase transcription by TCF; this will result in reduced luciferase protein production and luciferase signal readout.
Compounds were tested for their Wnt pathway inhibitory activities using the described firefly luciferase reporter cell based assay. An LS174T luciferase reporter cell line was used which contained a T-Cell Factor (TCF) dependent gene promoter firefly luciferase construct.
Compounds, in concentrations from 30 μM to 1 nM, were incubated for 24 hours on the cells. Luciferase activities were determined using the Steady Glo Luciferase Assay System (Promega) and the TOPCOUNT microplate reader (Perkin Elmer). For analysis, the obtained data were normalized against the untreated vehicle control and fitted for determination of the IC50 values using the Excel Fit application of the Excel Software (Microsoft).

[1] = CLint (intrinsic clearance) assay, liver microsomal incubation; assay type: in vitro ADME, human; conditions: liver microsomes, pH 7.4; human hepatic microsomes, 0.5 mg/mL protein, class symbols
Experimental: Also shown is the human hepatic microsomal intrinsic clearance (CLint), whereby the following classification is used:
2. CLint (Intrinsic Clearance) Assay
A Tecan Genesis workstation (RWS ASY 150/8) was used to perform the microsomal incubations. Analysis was carried out using a Waters ACQUITY UPLC system coupled to an ABSciex API3000 mass spectrometer. Data analysis was performed using Assay Explorer (Symyx).
Column: Acquity UPLC BEH C18, 2.1×50 mm, 1.7 um (Waters)
Mobile phases: • A=0.1% formic acid in water • B=acetonitrile
Column temperature: 50° C.
0.1 M potassium phosphate buffer pH 7.4 containing 1 mM MgCl2
15 mM NADPH in phosphate buffer
5.0 mg protein/mL liver microsomes in phosphate buffer
Each experiment consists of 12 test and 2 reference compounds. The reference compounds are incubated as a cocktail.
Dilution of test compounds was done in 2 steps from a 10 mM DMSO stock solution. First 4 μL stock solution was added to 196 μL of 20% DMSO in potassium phosphate buffer pH 7.4. In a second step 10 μL of the first dilution were added to 1890 μL potassium phosphate buffer and 100 μL internal standard solution to a final concentration of […].
100 μL of the final compound dilution were aliquoted into a 96 deep well plate. 12.5 μL liver microsomes were added to each well (0.5 mg/mL final protein concentration) and the samples preincubated for 5 min at 37° C. and 800 rpm agitation.
After the preincubation, 250 μL cold acetonitrile were added to the 0 min samples to prevent a reaction. Following this, 12.5 μL NADPH solution were added to all wells to start the incubation, with the exception of the 0 min and 30 min controls without cofactor, where the NADPH was substituted for phosphate buffer.
The incubations were stopped after 5, 10, 20 and 30 min by adding 250 μL cold acetonitrile to the individual wells.
The quenched samples were then centrifuged at 4000 g for 1 h at 4° C. 100 μL of the supernatant were transferred into 96 well plates for analysis.
The metabolic stability of each compound was determined by measurement of the change in LC-MS/MS peak area over time. Assay Explorer software was used to automatically calculate the slope k of the decline. The intrinsic clearance (CLint) of each compound was then calculated according to the formula: CLint(μL/min/mg protein)=k1000/protein concentration.

IC50 (Wnt pathway) [nM]	microsomal CLint at 0.8 μM [1] [µL/min/mg]	SMILES
25	100 to 150	Cn1cc(-c2ccc(-c3cnc(N)c(Cl)c3N3CCC4(CCNC4=O)CC3)cc2)cn1 [Compound 16, 8-(2-Amino-3-chloro-5-(4-(1-methyl-1H-pyrazol-4-yl)phenyl)pyridin-4-yl)-2,8-diazaspiro[4.5]decan-1-one]
2	10 to 50	Cn1ncc2cc(-c3cnc(N)c(Cl)c3N3CCC4(CC3)CC(=O)NC4=O)ccc21 [Compound 17, 8-[2-Amino-3-chloro-5-(1-methyl-1H-indazol-5-yl)-pyridin-4-yl]-2,8-diaza-spiro[4.5] decane-1,3-dione]
120	50 to 100	Nc1ncc(-c2ccc(N3CCOCC3)cc2)c(N2CCC3(CCNC3=O)CC2)c1Cl [Compound 18, 8-[2-Amino-3-chloro-5-(4-morpholin-4-yl-phenyl)-pyridin-4-yl]-2,8-diaza-spiro[4.5] decan-1-one]
75	10 to 50	Nc1ncc(-c2ccc3c(c2)CCC(=O)N3)c(N2CCC3(CCNC3=O)CC2)c1Cl [Compound 19, 6-[6-Amino-5-chloro-4-(1-oxo-2,8-diaza-spiro[4.5]dec-8-yl)-pyridin-3-yl]-3,4-dihydro-1H-quinolin-2-one]
54	10 to 50	Cn1ncc2ccc(-c3cnc(N)c(Cl)c3N3CCC4(CC3)CNC(=O)O4)cc21 [Compound 20, 8-[2-Amino-3-chloro-5-(1-methyl-1H-indazol-6-yl)-pyridin-4-yl]-1-oxa-3,8-diaza-spiro[4.5] decan-2-one]
110	10 to 50	Cn1ncc2cc(-c3cnc(N)c(Cl)c3N3CCC4(CC3)CNC(=O)O4)ccc21 [Compound 21, 8-[2-Amino-3-chloro-5-(1-methyl-1H-indazol-5-yl)-pyridin-4-yl]-1-oxa-3,8-diaza-spiro[4.5] decan-2-one]
38	10 to 50	Cn1ccc(-c2ccc(-c3cnc(N)c(Cl)c3N3CCC4(CCNC4=O)CC3)cc2)n1 [Compound 22, 8-(2-Amino-3-chloro-5-(4-(1-methyl-1H-pyrazol-3-yl)phenyl)pyridin-4-yl)-2,8-diazaspiro[4.5]decan-1-one]
21	10 to 50	Cn1ncc2ccc(-c3cnc(N)c(Cl)c3N3CCC4(CCNC4=O)CC3)cc21 [Compound 23, 8-[2-Amino-3-chloro-5-(1-methyl-1H-indazol-6-yl)-pyridin-4-yl]-2,8-diaza-spiro[4.5] decan-1-one]
18	100 to 150	Nc1ncc(-c2ccc3cc[nH]c3c2)c(N2CCC3(CCNC3=O)CC2)c1Cl [Compound 24, 8-[2-Amino-3-chloro-5-(1H-indol-6-yl)-pyridin-4-yl]-2,8-diaza-spiro[4.5] decan-1-one]
34	50 to 100	Cn1ncc2cc(-c3cnc(N)c(Cl)c3N3CCC4(CCNC4=O)CC3)ccc21 [Compound 25, 8-(2-Amino-3-chloro-5-(1-methyl-1H-indazol-5-yl)pyridin-4-yl)-2,8-diazaspiro[4.5]decan-1-one]
6	100 to 150	CN1c2ccc(-c3cnc(N)c(Cl)c3N3CCC4(CCNC4=O)CC3)cc2CS1(=O)=O [Compound 26, 8-(2-Amino-3-chloro-5-(1-methyl-2,2-dioxido-1,3-dihydrobenzo[c]isothiazol-5-yl)pyridin-4-yl)-2,8-diazaspiro[4.5]decan-1-one]
34	100 to 150	N#CC1CCN(c2c(-c3ccc(N4CCOCC4)cc3)cnc(N)c2Cl)CC1 [Compound 27, 1-(2-Amino-3-chloro-5-(4-morpholinophenyl)pyridin-4-yl)piperidine-4-carbonitrile]
12	≥ 150	Nc1ccc(-c2ccc(-c3cnc(N)c(Cl)c3N3CCC4(CCNC4=O)CC3)cc2)cn1 [Compound 28, 8-{2-Amino-5-[4-(6-amino-pyridin-3-yl)-phenyl]-3-chloro-pyridin-4-yl}-2,8-diaza-spiro[4.5] decan-1-one]
30	100 to 150	Nc1ncc(-c2ccc3cc[nH]c3c2)c(N2CCC3(CC2)CNC(=O)O3)c1Cl [Compound 29, 8-[2-Amino-3-chloro-5-(1H-indol-6-yl)-pyridin-4-yl]-1-oxa-3,8-diaza-spiro[4.5] decan-2-one]
12	10 to 50	CN1CCN(c2ccc(-c3cnc(N)c(Cl)c3N3CCC(C#N)CC3)cc2)CC1 [Compound 30, 1-(2-Amino-3-chloro-5-(4-(4-methylpiperazin-1-yl)phenyl)pyridin-4-yl)piperidine-4-carbonitrile]
4	50 to 100	Cn1ncc2cc(-c3cnc(N)c(Cl)c3N3CCC4(CC3)C(=O)Nc3ccccc34)ccc21 [Compound 31, 1′-(2-Amino-3-chloro-5-(1-methyl-1H-indazol-5-yl)pyridin-4-yl)spiro[indoline-3,4′-piperidin]-2-one]
17	10 to 50	Nc1ncc(-c2ccc3oc(=O)[nH]c3c2)c(N2CCC3(CCNC3=O)CC2)c1Cl [Compound 32, 5-[6-Amino-5-chloro-4-(1-oxo-2,8-diaza-spiro[4.5]dec-8-yl)-pyridin-3-yl]-3H-benzooxazol-2-one]
154	10 to 50	Nc1ncc(-c2ccc3c(c2)CC(=O)N3)c(N2CCC3(CCNC3=O)CC2)c1Cl [Compound 33, 8-[2-Amino-3-chloro-5-(2-oxo-2,3-dihydro-1H-indol-5-yl)-pyridin-4-yl]-2,8-diaza-spiro[4.5] decan-1-one]
370	10 to 50	Nc1ncc(-c2ccc(-c3cnn(CCO)c3)cc2)c(N2CCC3(CC2)CNC(=O)O3)c1Cl [Compound 34, 8-(2-Amino-3-chloro-5-{4-[1-(2-hydroxy-ethyl)-1H-pyrazol-4-yl]-phenyl}-pyridin-4-yl)-1-oxa-3,8-diaza-spiro[4.5] decan-2-one]
35	50 to 100	Cn1ncc2cc(-c3cnc(N)c(C(F)(F)F)c3N3CCC4(CCNC4=O)CC3)ccc21 [Compound 39, 8-(2-Amino-5-(1-methyl-1H-indazol-5-yl)-3-(trifluoromethyl)pyridin-4-yl)-2,8-diazaspiro[4.5]decan-1-one]
100	10 to 50	Cn1cc(-c2ccc(-c3cnc(N)c(Cl)c3N3CCC4(CC3)NCCNC4=O)cc2)cn1 [Compound 40, 9-(2-Amino-3-chloro-5-(4-(1-methyl-1H-pyrazol-4-yl)phenyl)pyridin-4-yl)-1,4,9-triazaspiro[5.5]undecan-5-one]
75	< 10	Cn1cc(-c2ccc(-c3cnc(N)c(C(F)(F)F)c3N3CCC4(CC3)CNC(=O)O4)cc2)cn1 [Compound 41, 8-{2-Amino-5-[4-(1-methyl-1H-pyrazol-4-yl)-phenyl]-3-trifluoromethyl-pyridin-4-yl}-1-oxa-3,8-diaza-spiro[4.5] decan-2-one]
11	10 to 50	CN1c2ccc(-c3cnc(N)c(C(F)(F)F)c3N3CCC4(CC3)CNC(=O)O4)cc2CS1(=O)=O [Compound 42, 8-[2-Amino-5-(1-methyl-2,2-dioxo-2,3-dihydro-1H-2I6-benzo[c]isothiazol-5-yl)-3-trifluoro-methyl-pyridin-4-yl]-1-oxa-3,8-diaza-spiro[4.5] decan-2-one]
